Measurements taken from PMC10094171, “Development of Novel Pt(IV)-Carbohydrate Derivatives as Targeted Anticancer Agents against Osteosarcoma” (International Journal of Molecular Sciences, 2023).

Tests used:
MG63 cells = experiment: 2D MTT cell viability assay, MG63 osteosarcoma cells; format: cell-based, Human
Description: (§1) The drugs were reconstituted in dimethyl sulfoxide (DMSO) at 1 mg/mL concentration, before being diluted in culture media at the required concentration. A 2D in vitro screening of all the drugs was performed at 72 h in a wide concentration range (0.5; 1.5, 5, 15, 30, 60 and 100 µM) on the three different cell lines in terms of cell viability, and the IC50 was calculated. The cell morphology in the presence of the complexes was evaluated at 15 and 30 µM concentrations, for MG63 and SAOS-2 and hFOBs cells, respectively, according to the IC50 at 72 h. […] For the models, a composite hydroxyapatite-based scaffold (MgHA/Coll), as a bone-like matrix, was used in combination with MG63 cells.
(§2) Cell culture. […] The cell number and viability were determined using the trypan blue dye exclusion test, and all cell handling procedures were performed under a laminar flow hood in sterility conditions.
(§3) MTT cell viability assay. A quantitative analysis of cell viability was carried out by using MTT assay, following the manufacturer’s instructions. […] After 15 min of incubation under slight stirring conditions, the absorbance of formazan was read at 570 nm by using a Multiskan FC Microplate Photometer (Thermo Fisher Scientific, Waltham, MA, USA). The values of absorbance are directly proportional to the number of metabolic active cells in each well. […]

hFOBs cells = experiment: 2D MTT cell viability assay, non-cancerous human foetal osteoblasts; format: cell-based; conditions: hFOBs (healthy cells), 72 h
Description: as §1, with “calculated.” for “calculated. The cell morphology in the presence of the complexes was evaluated at 15 and 30 µM concentrations, for MG63 and SAOS-2 and hFOBs cells, respectively, according to the IC50 at 72 h.”
as §2, §3
Statistical Analysis. […] The MTT results were further analysed using one-way analysis of variance (one-way ANOVA) and Dunnett’s multiple comparisons test. […]

SAOS-2 cells = experiment: 2D MTT cell viability assay, SAOS-2 osteosarcoma cells; format: cell-based, Human; conditions: SAOS-2, 2D, 72 h
Description: as §1, §2, §3

[1] = test system: MG63 cells on bone-mimetic scaffold; experiment: 3D scaffold-based osteosarcoma model (3D OS model), MTT cell viability; set-up: species or system Human; conditions: 15 µM, MG63 3D OS model
Description: as §1
Synthesis of bone-mimetic scaffolds. The Mg-doped hydroxyapatite collagen composite scaffolds were designed and synthesised at ISSMC of CNR of Italy. In brief, 150 g of collagen gel (1 wt%, Opocrin SpA, MO, Italy) was diluted into a phosphoric acid solution (2.4 g in 500 mL; H3PO4, 85 wt.%, Sigma-Aldrich) at room temperature to obtain an acidic aqueous homogenous suspension. […]
MTT cell viability assay. A quantitative analysis of cell viability was carried out by using MTT assay, following the manufacturer’s instructions. […]

Question: What does the source list for N.N.[Cl][Pt][Cl] [Cisplatin, cis-[(NH3)2PtCl2], reference compound]?
Answer: effect on viable cells in 2D standard culture (MG63 cells; 15 µM, 2D standard culture, p-value ≤ 0.0001): significantly reduced the viable cells; IC50 (MG63 cells; MG63, 2D, MTT, 72 h): 12.2 µM; IC50 (hFOBs cells): 4.11 µM; IC50 (hFOBs cells; listed as cisplatin): 4.1 µM; IC50 (SAOS-2 cells): 13.7 µM; effect on cell viability in 3D OS model [1]: did not compromise the cell viability
